Source: ChEMBL document CHEMBL4808235, “Identification of 6-hydroxy-5-phenyl sulfonylpyrimidin-4(1H)-one APJ receptor agonists” (Bioorg Med Chem Lett, 2021)

Assays:
Apelin receptor [1] = molecular target: T1, Apelin receptor (Homo sapiens, UniProt P35414); test: Agonist activity at human APJ receptor assessed as effect on cAMP accumulation by cAMP-Glo assay; assay type: functional
T1 sequence (P35414 whole entry): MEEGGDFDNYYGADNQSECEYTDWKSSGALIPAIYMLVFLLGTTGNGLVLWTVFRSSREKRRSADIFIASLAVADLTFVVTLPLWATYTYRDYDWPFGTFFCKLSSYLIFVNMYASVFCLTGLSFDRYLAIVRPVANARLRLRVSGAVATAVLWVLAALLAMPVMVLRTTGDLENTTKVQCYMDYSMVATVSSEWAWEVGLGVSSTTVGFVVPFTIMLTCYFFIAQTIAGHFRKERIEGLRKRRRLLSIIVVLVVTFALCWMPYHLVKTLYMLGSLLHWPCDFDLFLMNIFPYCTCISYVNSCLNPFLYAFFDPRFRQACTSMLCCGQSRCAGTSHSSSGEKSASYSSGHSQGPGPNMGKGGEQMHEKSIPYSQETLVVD

Apelin receptor [2] = molecular target: T2, Apelin receptor (Rattus norvegicus, UniProt Q9JHG3); test: Agonist activity at rat APJ receptor assessed as effect on cAMP accumulation by cAMP-Glo assay; assay type: functional
T2 sequence (Q9JHG3 whole entry): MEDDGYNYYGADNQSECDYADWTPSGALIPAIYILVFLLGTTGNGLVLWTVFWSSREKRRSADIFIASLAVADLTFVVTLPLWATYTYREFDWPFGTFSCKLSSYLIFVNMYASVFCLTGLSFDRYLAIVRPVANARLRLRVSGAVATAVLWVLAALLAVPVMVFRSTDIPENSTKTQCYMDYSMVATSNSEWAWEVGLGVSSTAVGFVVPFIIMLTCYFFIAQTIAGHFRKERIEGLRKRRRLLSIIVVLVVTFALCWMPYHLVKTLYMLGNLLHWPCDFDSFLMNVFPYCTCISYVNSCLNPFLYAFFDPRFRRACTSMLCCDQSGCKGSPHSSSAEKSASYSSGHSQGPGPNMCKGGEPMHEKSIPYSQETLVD

Apelin receptor [3] = molecular target: T3, Apelin receptor (Mus musculus, UniProt Q9WV08); test: Agonist activity at mouse APJ receptor assessed as effect on cAMP accumulation by cAMP-Glo assay
T3 sequence (Q9WV08 whole entry): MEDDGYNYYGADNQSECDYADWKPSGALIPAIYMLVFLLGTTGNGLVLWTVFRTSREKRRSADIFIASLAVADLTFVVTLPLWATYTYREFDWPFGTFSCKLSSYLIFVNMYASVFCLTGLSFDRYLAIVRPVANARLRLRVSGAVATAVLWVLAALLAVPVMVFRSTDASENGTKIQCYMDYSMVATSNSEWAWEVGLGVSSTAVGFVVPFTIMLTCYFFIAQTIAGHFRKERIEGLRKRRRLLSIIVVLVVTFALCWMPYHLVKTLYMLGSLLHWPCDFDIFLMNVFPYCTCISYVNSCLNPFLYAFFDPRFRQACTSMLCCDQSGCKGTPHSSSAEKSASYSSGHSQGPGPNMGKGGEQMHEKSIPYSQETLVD

[4] = Metabolic stability in human liver microsomes assessed as parent compound remaining incubated for 10 mins in presence of NADPH; assay type: ADME, Microsome; conditions: read-out: Stabilty
[5] = Metabolic stability in rat liver microsomes assessed as parent compound remaining incubated for 10 mins in presence of NADPH; assay type: ADME, Microsome; conditions: read-out: Stabilty
[6] = Metabolic stability in mouse liver microsomes assessed as parent compound remaining incubated for 10 mins in presence of NADPH; assay type: ADME, Microsome; conditions: read-out: Stabilty
[7] = Permeability of the compound at pH 5.5 by PAMPA; assay type: ADME; conditions: read-out: permeability
[8] = Permeability of the compound at pH 7.4 by PAMPA; assay type: ADME; conditions: read-out: permeability
[9] = Cmax in rat at 1 mg/kg, po; assay type: ADME, organism-based; design: route oral, dose 1 mg/kg; conditions: in vivo
[10] = AUC (0 to 24 hrs) in rat at 1 mg/kg, po; assay type: ADME, organism-based; design: time < 24 hr, route oral, dose 1 mg/kg; conditions: in vivo
[11] = Half life in rat at 1 mg/kg, po; assay type: ADME, organism-based; conditions: in vivo
[12] = Cmax in cynomolgus monkey at 3 mg/kg, po; assay type: ADME, organism-based, Macaca fascicularis; design: route oral, dose 3 mg/kg; conditions: in vivo
Rattus norvegicus [13] = test: Hemodynamic activity in Sprague-Dawley rat model of acute pressure-volume loop model assessed as increase in cardiac output at 10 mg/kg/min administered as iv infusion for 15 mins relative to control; assay type: functional; conditions: 0.25 h
Rattus norvegicus [14] = test: Hemodynamic activity in Sprague-Dawley rat model of acute pressure-volume loop model assessed as increase in dP/dT at 10 mg/kg/min administered as iv infusion for 15 mins relative to control; assay type: functional; conditions: 0.25 h
[15] = Plasma concentration in Sprague-Dawley rat model of acute pressure-volume loop model at 10 mg/kg/min administered as iv infusion for 5 mins; assay type: ADME, organism-based
[16] = Plasma concentration in Sprague-Dawley rat model of acute pressure-volume loop model at 10 mg/kg/min administered as iv infusion for 15 mins; assay type: ADME, organism-based
[17] = Plasma concentration in Sprague-Dawley rat model of acute pressure-volume loop model assessed as free fraction at 10 mg/kg/min administered as iv infusion for 5 mins; assay type: ADME, organism-based; conditions: in vivo
[18] = Plasma concentration in Sprague-Dawley rat model of acute pressure-volume loop model assessed as free fraction at 10 mg/kg/min administered as iv infusion for 15 mins; assay type: ADME, organism-based; conditions: in vivo, 0.25 h
[19] = Toxicity activity in Sprague-Dawley rat model of acute pressure-volume loop model assessed as change in blood pressure at 10 mg/kg/min administered as iv infusion for 15 mins relative to control; assay type: organism-based; conditions: in vivo, 0.25 h
[20] = Toxicity activity in Sprague-Dawley rat model of acute pressure-volume loop model assessed as change in heart rate at 10 mg/kg/min administered as iv infusion for 15 mins relative to control; assay type: organism-based; conditions: in vivo, 0.25 h
in vivo [21] = conditions: rat, po, 1 mg/kg
in vivo [22] = conditions: cynomolgus monkey, po, 3 mg/kg
Description: AUC (0 to infinity) in cynomolgus monkey at 3 mg/kg, po

| Structure (SMILES) | EC50 (Apelin receptor [1]) [nM] | EC50 (Apelin receptor [2]) [nM] | EC50 (Apelin receptor [3]) [nM] | remaining at 10 min [4] [%] | remaining at 10 min [5] [%] | remaining at 10 min [6] [%] | Papp [7] [×10⁻⁶ cm/s] | Papp [8] [×10⁻⁶ cm/s] | also measured |
| --- | --- | --- | --- | --- | --- | --- | --- | --- | --- |
| CCCCc1[nH]c(=O)c(S(=O)(=O)c2ccc(-n3ccccc3=O)cc2)c(O)c1-c1c(OC)cccc1OC | 0.5 | 3 | 2 | 100 | 100 | 75 | 17.7 | 0.5 |  |
| CCCCc1nc(=O)c(S(=O)(=O)c2ccc(-c3cccnc3)cc2)c(O)n1-c1c(OC)cccc1OC | 0.04 | 0.05 | 0.05 | 88 | 3 | 57 | 20.2 | 0.6 |  |
| CCCCc1nc(=O)c(S(=O)(=O)c2ccc(-c3ccc(F)nc3)cc2)c(O)n1-c1c(OC)cccc1OC | 0.002 | 0.004 | 0.02 | 100 | 2 | 69 | 51.6 | 2.4 |  |
| CCCCc1[nH]c(=O)c(S(=O)(=O)c2ccc(-n3cc(Cl)ccc3=O)cc2)c(O)c1-c1c(OC)cccc1OC | 0.03 | 0.2 | 0.1 | 97 | 72 | 64 | 28.5 | 2.2 |  |
| CCCCc1nc(=O)c(S(=O)(=O)c2ccc(-c3ccc(F)cc3)cc2)c(O)n1-c1c(OC)cccc1OC | 0.08 | 0.02 | 0.1 | 100 | 5 | 47 | 41.8 | 13.2 |  |
| CCCCc1[nH]c(=O)c(S(=O)(=O)c2ccc(-c3ccncc3C)cc2)c(O)c1-c1c(OC)cccc1OC | 0.04 | 0.4 | 0.1 | 80 | 57 | 39 | 35.5 | 7.6 |  |
| CCCCc1nc(=O)c(S(=O)(=O)c2ccc(-c3ccnc(NC(=O)C4CC4)c3)cc2)c(O)n1-c1c(OC)cccc1OC | 0.03 | 0.04 | 0.04 | 84 | 72 | 72 | 18.3 | 1.1 | Cmax [9]: 400 nM; AUC(0-t) at 24 h [10]: 0.6 µM·h; half-life [11]: 1.3 h |
| CCCCc1[nH]c(=O)c(S(=O)(=O)c2ccc(-c3ccc(F)nc3)cc2)c(O)c1-c1c(OC)cccc1OC | 0.7 | 12 | 5 |  |  |  |  |  |  |
| COc1cccc(OC)c1-n1c(CCC(C)C)nc(=O)c(S(=O)(=O)c2ccc(-c3ccc(F)nc3)cc2)c1O |  | 0.03 |  | 89 | 1 | 31 | 24.6 | 3.5 |  |
| CCCCc1nc(=O)c(S(=O)(=O)c2ccc(C3CC3)cc2)c(O)n1-c1c(OC)cccc1OC | 0.02 | 0.06 | 0.03 | 95 | 59 | 93 | 61.5 | 2.2 | Cmax [9]: 6200 nM; half-life [11]: 5.6 h; Cmax [12]: 1500 nM; Activity (Rattus norvegicus [13]): 11%; Activity (Rattus norvegicus [14]): 14%; concentration at 5 min [15]: 2600 nM; concentration at 0.25 h [16]: 5800 nM; Cp(f) [17]: 5.2 nM; Cp(f) [18]: 12 nM; Activity [19]: Non-Toxic; Activity [20]: Non-Toxic; AUC(0-inf) (in vivo [21]): 3.9 µM·h; AUC(0-inf) (in vivo [22]): 4.7 µM·h |
